Non-standard residues stand in square brackets, D forms with d. No end group written: not given here. pS = N[C@@H](COP(=O)(O)O)C(=O)O
T1: Human CK1δ catalytic domain (residues 1–294) (human, UniProt P48730 1-294)
T1 sequence: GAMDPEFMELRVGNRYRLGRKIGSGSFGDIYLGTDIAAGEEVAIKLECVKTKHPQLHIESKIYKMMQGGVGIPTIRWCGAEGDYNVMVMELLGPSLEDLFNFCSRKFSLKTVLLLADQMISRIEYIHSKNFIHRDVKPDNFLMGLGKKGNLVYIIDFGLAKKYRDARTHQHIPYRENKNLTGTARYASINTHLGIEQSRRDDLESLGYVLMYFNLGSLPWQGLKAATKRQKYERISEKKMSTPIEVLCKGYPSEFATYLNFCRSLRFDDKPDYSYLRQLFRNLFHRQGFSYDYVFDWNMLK


How the values were obtained:
CK1δ ΔC = experiment: NMR kinase assay monitoring priming phosphorylation at S662; format: biochemical, human; settings: 3-hr real-time NMR kinase assay, 0.2 mM 15N-FASP, 2.5 mM ATP, 1 µM CK1δ ΔC, 25°C, SOFAST HMQC
[1] = target: T1, Human CK1δ catalytic domain (residues …); experiment: crystal structure

fraction of primed FASP (pS662), completion of priming (CK1δ ΔC)	binding result [1]	Molecule
approximately 50%		WT FASP: wild-type recombinant FASP peptide (residues 645–687) from human PER2 (GAMDPEFWRKKKTGVGTHLTSLALPGKAESVASLTSQCSYSSTIVHVGDKKPQPE; left off: His-NusA, N-terminal, cleaved)
	binds	GKAE[pS]VA[pS]LT[pS]QC[pS]YA [human PER2 4pFASP peptide]

Reference: paper PMC11684667 (Molecular cell, 2023)
